Data as given in patent US8653075B2, “Therapeutic methods employing substituted piperidines which are CCR3 antagonists” (Boehringer Ingelheim International GmbH, priority 2009, dated 2014).

Target: T1, human chemokine receptor CCR3 (Homo sapiens, UniProt P51677)
T1 construct: expressed in transfected cells; host or cells: K562 cell line (hCCR3-C1 cells), membrane preparation
T1 sequence (P51677 1-355): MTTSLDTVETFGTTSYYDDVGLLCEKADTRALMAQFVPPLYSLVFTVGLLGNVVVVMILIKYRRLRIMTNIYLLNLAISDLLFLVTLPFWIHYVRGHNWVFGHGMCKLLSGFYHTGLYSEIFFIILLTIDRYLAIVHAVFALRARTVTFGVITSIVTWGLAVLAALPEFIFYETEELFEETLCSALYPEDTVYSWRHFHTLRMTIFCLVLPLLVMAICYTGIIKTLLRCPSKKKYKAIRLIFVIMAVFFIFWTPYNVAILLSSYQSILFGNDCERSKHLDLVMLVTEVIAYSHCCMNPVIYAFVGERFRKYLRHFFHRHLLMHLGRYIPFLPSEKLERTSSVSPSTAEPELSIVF
Assay: CCR3 receptor binding assay (SPA, 125I-eotaxin-1 displacement, hCCR3-C1 K562 cell membranes)
Settings: human Eotaxin-1 at human CCR3-Rezeptor; for inhibition at 1 µM: 1 μM test compound, read-out: CCR3 % inh @ 1 μM; for Ki: dose range 0.1 to 10000 nM
Method: The CCR3 receptor binding test is based on a K562 cell line (leukemia myelogenic blast cells) transfected with the human chemokine receptor CCR3 (hCCR3-C1 cells). The cell membranes were prepared by disrupting the hCCR3-C1 cells by […]. The preparation was centrifuged at 400 g 4° C. for 30 min. The supernatant was transferred into fresh tubes followed by a second centrifugation at 48000 g, 4° C. for 1 h. The membranes were re-suspended in the SPA incubation buffer (25 mM HEPES, 25 mM MgCl2 6×H2O, 1 mM CaCl2 2×H2O) without bovine serum albumin and homogenized by passing through a single use needle (Terumo, 23Gx1″). The membranes were stored in aliquots at −80° C.
The CCR3 receptor binding assay was performed in a Scintillation Proximity Assay (SPA) design with the radioligand recombinant human ^125Iodine-eotaxin-1. Cell membranes of hCCR3 C1 cells were again homogenized by passing through a single use needle (Terumo, 23Gx1″) and diluted in SPA incubation buffer in suitable concentrations (0.5-10 μg protein/well) in 96 well microtiter plates (1450-514, Perkin Elmer). The SPA assay was set up in the SPA incubation buffer with a final volume of 200 μl and final concentration of 25 mM HEPES, 25 mM MgCl2 6×H2O, 1 mM CaCl2 2×H2O and 0.1% bovine serum albumin. The SPA assay mixture contained 60 μl of the membrane suspension, 80 μl of Wheat Germ Agglutinin coated PVT beads (organic scintillator, GE Healthcare, RPNQ-0001) 0.2 mg/well), 40 μl of recombinant human ^125Jodine-eotaxin-1 (Biotrend), diluted in SPA buffer to a final concentration of 30.000 dpm per well, and 20 μl of the test compound (dissolved in DMSO dilutions). The SPA assay mixture was incubated for 2 h at room temperature. Bound radioactivity was determined with a scintillation counter (Micro Beta “Trilux”, Wallac). Included were controls for total binding (no displacer added, Bo) and non-specific binding (NSB) by adding unlabelled recombinant human Eotaxin-1 (Biotrend, Cat #300-21) or a reference compound.
Determination of the affinity of a test compound was calculated by subtraction of the non-specific binding (NSB) from the total binding (Bo) or the binding in the presence of the test compound (B) at a given compound concentration. […] The Bo-NSB value was set to 0% inhibition.
% inhibition and Ki values are (human Eotaxin-1 at human CCR3-Rezeptor): […]

| Compound | inhibition at 1 µM [%] | Ki [nM] |
| --- | --- | --- |
| Cc1cc(CN2CCC(N3C(=O)CC[C@@H]3C(=O)Nc3cccc(-c4nnnn4C)c3)CC2)ccc1Cl [Example 1] | 101 | 4 |
| CNC(=O)c1cc(NC(=O)[C@H]2CCC(=O)N2C2CCN(Cc3ccc(Cl)c(C)c3)CC2)cc(C(F)(F)F)c1 [Example 2] | 98 | 4 |
| CCOC(=O)c1nnc(NC(=O)[C@H]2CCC(=O)N2C2CCN(Cc3ccc(Cl)c(C)c3)CC2)s1 [Example 3] | 75 | 240 |
| CCNS(=O)(=O)c1cccc(NC(=O)[C@H]2CCC(=O)N2C2CCN(Cc3ccc(Cl)c(C)c3)CC2)c1 [Example 4] | 99 | 5 |
| Cc1cc(CN2CCC(N3C(=O)CC[C@@H]3C(=O)Nc3cccc(-c4nnn(C)n4)c3)CC2)ccc1Cl [Example 5] | 98 | 6 |
| CCNS(=O)(=O)c1cccc(NC(=O)[C@H]2CCC(=O)N2C2CCN(Cc3ccc(Cl)c(Cl)c3)CC2)c1 [Example 6] | 100 | 7 |
| CNC(=O)c1cc(NC(=O)[C@H]2CCC(=O)N2C2CCN(Cc3ccc(Cl)c(C)c3)CC2)cc(C(=O)NC)c1 [Example 7] | 97 | 7 |
| Cc1cc(CN2CCC(N3C(=O)CC[C@@H]3C(=O)Nc3cccc(N(CC(=O)N(C)C)S(C)(=O)=O)c3)CC2)ccc1Cl [Example 8] | 99 | 9 |
| Cc1cc(CN2CCC(N3C(=O)CC[C@@H]3C(=O)Nc3cccc(-c4ccn(C)n4)c3)CC2)ccc1Cl [Example 9] | 95 | 12 |
| CC(=O)Nc1nc2c(s1)-c1cc(NC(=O)[C@H]3CCC(=O)N3C3CCN(Cc4ccc(Cl)c(C)c4)CC3)ccc1CC2 [Example 10] | 98 | 16 |
| Cc1cc(CN2CCC(N3C(=O)CC[C@@H]3C(=O)Nc3cc(C4CC4)nn3C)CC2)ccc1Cl [Example 11] | 92 | 27 |
| CCNS(=O)(=O)c1cccc(NC(=O)[C@@H]2CCC(=O)N2C2CCN(Cc3ccc(Cl)c(C)c3)CC2)c1 [Example 12] | 84 | 88 |
| Cc1cc(CN2CCC(N3C(=O)CC[C@@H]3C(=O)N3CCc4ccccc43)CC2)ccc1Cl [Example 13] | 71 | 373 |
| Cc1cc(CN2CCC(N3C(=O)CC[C@@H]3C(=O)N[C@H]3CCN(C(=O)OC(C)(C)C)C3)CC2)ccc1Cl [Example 14] | 60 | 540 |
| Cc1cc(CN2CCC(N3C(=O)CC[C@@H]3C(=O)N3CCCc4ccccc43)CC2)ccc1Cl [Example 15] | 38 | 1110 |
| Cc1cc(CN2CCC(N3C(=O)CC[C@@H]3C(=O)Nc3cccc(-c4nc[nH]n4)c3)CC2)ccc1Cl [Example 16] | 98 | 20 |
| Cc1cc(CN2CCC(N3C(=O)CC[C@@H]3C(=O)Nc3cccc(N4CCNC4=O)c3)CC2)ccc1Cl [Example 17] | 100 | 5 |
| Cc1cc(CN2CCC(N3C(=O)CC[C@@H]3C(=O)Nc3cccc(N4CCN(C)C4=O)c3)CC2)ccc1Cl [Example 18] | 96 | 7 |
| Cc1cc(CN2CCC(N3C(=O)CC[C@@H]3C(=O)Nc3cccc(N4CCCCC4)c3)CC2)ccc1Cl [Example 19] | 98 | 7 |
| CCN(C)S(=O)(=O)c1cccc(NC(=O)[C@H]2CCC(=O)N2C2CCN(Cc3ccc(Cl)c(C)c3)CC2)c1 [Example 20] | 97 | 9 |
| CCS(=O)(=O)N(CC(=O)N(C)C)c1cccc(NC(=O)[C@H]2CCC(=O)N2C2CCN(Cc3ccc(Cl)c(C)c3)CC2)c1 [Example 21] | 96 | 11 |
| Cc1cc(CN2CCC(N3C(=O)CC[C@@H]3C(=O)Nc3cccc(S(=O)(=O)N4CCCCC4)c3)CC2)ccc1Cl [Example 22] | 84 | 13 |
| Cc1cc(CN2CCC(N3C(=O)CC[C@H]3C(=O)Nc3ccc4c(c3)CCC(=O)N4)CC2)ccc1Cl [Example 23] | 95 | 18 |

| Compound | inhibition at 1 µM [%] | Ki [nM] |
| --- | --- | --- |
| Cc1nccc(-c2cccc(NC(=O)[C@H]3CCC(=O)N3C3CCN(Cc4ccc(Cl)c(C)c4)CC3)c2)n1 [Example 24] | 99 | 22 |
| Cc1cc(CN2CCC(N3C(=O)CC[C@@H]3C(=O)Nc3cccc(S(=O)(=O)CCO)c3)CC2)ccc1Cl [Example 26] | 97 | 27 |
| Cc1cc(CN2CCC(N3C(=O)CC[C@@H]3C(=O)Nc3cccc(-c4c[nH]cn4)c3)CC2)ccc1Cl [Example 27] | 96 | 28 |
| Cc1cc(CN2CCC(N3C(=O)CC[C@@H]3C(=O)Nc3cccc(-c4cnco4)c3)CC2)ccc1Cl [Example 28] | 97 | 29 |
| Cc1cc(CN2CCC(N3C(=O)CC[C@@H]3C(=O)NC3CCC(NS(=O)(=O)c4ccccc4)CC3)CC2)ccc1Cl (some centres unmarked) [Example 29] | 94 | 31 |
| Cc1cc(CN2CCC(N3C(=O)CC[C@@H]3C(=O)Nc3ccc4[nH]ncc4c3)CC2)ccc1Cl [Example 31] | 93 | 50 |
| Cc1cc(CN2CCC(N3C(=O)CC[C@@H]3C(=O)Nc3cc(C(N)=O)cc(C(N)=O)c3)CC2)ccc1Cl [Example 32] | 82 | 145 |
| Cc1cc(CN2CCC(N3C(=O)CC[C@@H]3C(=O)Nc3ccc(N4CCCOC4=O)c(C)c3)CC2)ccc1Cl [Example 33] | 83 | 150 |
| COc1cc(NC(=O)[C@H]2CCC(=O)N2C2CCN(Cc3ccc(Cl)c(C)c3)CC2)ccc1N1CCCCC1=O [Example 34] | 80 | 152 |
| Cc1cc(CN2CCC(N3C(=O)CC[C@@H]3C(=O)Nc3cccnc3)CC2)ccc1Cl [Example 36] | 80 | 159 |
| CNC(=O)N1CCc2cc(NC(=O)[C@H]3CCC(=O)N3C3CCN(Cc4ccc(Cl)c(C)c4)CC3)ccc21 [Example 37] | 80 | 175 |
| Cc1cc(CN2CCC(N3C(=O)CC[C@H]3C(=O)NCc3ccccc3OC(F)F)CC2)ccc1Cl [Example 38] | 78 | 211 |
| Cc1cc(CN2CCC(N3C(=O)CC[C@@H]3C(=O)Nc3cccc(CNC(=O)NC4CCCCC4)c3)CC2)ccc1Cl [Example 39] | 80 | 227 |
| Cc1cccc(NC(=O)[C@@H]2CCC(=O)N2C2CCN(Cc3ccc(Cl)c(C)c3)CC2)n1 [Example 40] | 75 | 229 |
| CCn1nccc1CNC(=O)[C@H]1CCC(=O)N1C1CCN(Cc2ccc(Cl)c(C)c2)CC1 [Example 41] | 66 | 395 |
| Cc1cc(CN2CCC(N3C(=O)CC[C@H]3C(=O)Nc3n[nH]c4ccccc34)CC2)ccc1Cl [Example 42] | 63 | 482 |
| COc1ccccc1C1CCCN(C(=O)[C@H]2CCC(=O)N2C2CCN(Cc3ccc(Cl)c(C)c3)CC2)C1 (some centres unmarked) [Example 43] | 59 | 523 |
| Cc1cc(CN2CCC(N3C(=O)CC[C@@H]3C(=O)N[C@H]3CC[C@H](NC(=O)Nc4ccccc4)CC3)CC2)ccc1Cl [Example 44] | 63 | 552 |
| Cc1cc(CN2CCC(N3C(=O)CC[C@H]3C(=O)NCc3ccnn3C)CC2)ccc1Cl [Example 45] | 50 | – |
| Cc1cc(CN2CCC(N3C(=O)CC[C@H]3C(=O)NCc3ccccc3)CC2)ccc1Cl [Example 46] | 44 | 873 |
| Cc1cc(CN2CCC(N3C(=O)CC[C@H]3C(=O)NCc3noc(C4CCCC4)n3)CC2)ccc1Cl [Example 47] | 31 | 1190 |
| Cc1cc(CN2CCC(N3C(=O)CC[C@H]3C(=O)NC3CCC(F)(F)CC3)CC2)ccc1Cl [Example 48] | 40 | 965 |
